Measurements from patent publication US20240189408A1, “COMPOSITIONS AND METHODS FOR REDUCING METHANE EMISSIONS IN RUMINANT POPULATIONS” (Arkea Bio Corp., priority 2022, published 2024).
Several values for one entry are separate records, joined by “and”; a condition that tells them apart may be missing. Equal values may be shown once. Read-outs that look alike come from different tables or passages of the source.

Key:
[1] = Adsorbent study: binding affinity and adsorptive capacity for 3-NOP, HPLC at 230 nm
Method: The solution was then placed in an ultrasonic bath for ˜4 hr and then allowed to equilibrate over 24h.

rumen methanogens [2] = details: cited from earlier work
Methanomicrobium mobile = details: cited from earlier work
Mbb. Ruminantium = details: cited from earlier work
Methanosarcina mazei = details: cited from earlier work
[3] = 3-NOP to adsorbent ratio study; type: physicochemical; details: 24 hr, HPLC
Method: Optimal loading of 3-NOP onto adsorbents was determined by varying ratios of 3-NOP to adsorbent. 3-NOP and adsorbent were speed mixed at 2000 rpm for 1 min at the following ratios by weight: 1:1.5, 1:2, 1:2.5. The adsorbed 3-NOP powder mixture was then placed in distilled water at 1% 3-NOP loading. The solution was allowed to equilibrate for 24 hr and then an aliquot was taken for HPLC to determine the reduction in 3-NOP concentration.

rumen methanogens [4] = details: sheep, cited from earlier work
[5] = test system: methane production in ruminants; details: 10 mmol/L; cited from earlier work
ovalbumin (OVA) = assay: OVA-specific IgG ELISA of sera after IM or SQ vaccination; type: in vivo, dairy cows; details: for OVA-specific IgG, Absorbance (OD450): one line per animal replicate
Method: (§1) Bovine nucleic acid vaccination protocols (SQ and IM) were assessed in vivo in the dairy cows through the quantification of the adaptive immune response following inoculation with ovalbumin (OVA). Immune response was assessed by quantifying total IgG and OVA-specific IgG over a 28-day period after vaccination. Both SQ and IM vaccination provided a robust immune response, with IM vaccination providing a higher total immune response than SQ vaccination.
(§2) Dairy cows were dried off for a period of eight days prior to vaccination. Each vaccine formulation was administered either by IM or SQ injection to three animals. In total, 15 animals were vaccinated with LNPs containing mRNA and 6 animals were vaccinated with empty LNPs. Intramuscular injections were delivered into the cow's right neck muscle by veterinary-trained staff using an 18-gauge 1-1.5″ needle. Subcutaneous injections were delivered into the cow's right shoulder by veterinary-trained staff using an 18-gauge 0.5-0.75″ needle. Total blood samples (˜20 mL) were collected by veterinary-trained staff. Samples were collected into 10 mL vacutainer tubes (2×10 mL) from the coccygeal vein (tail vein) by needle puncture. Harvested blood samples were then processed via ultracentrifugation for serum collection. Isolated serum samples were aliquoted, labeled and stored in cryogenic tubes at −20° C. until use.
Sera samples were thawed on ice and total IgG was quantified using NovateinBio's Bovine OVA sIgG Antibody ELISA Kit (Cat No. BG-BVN11731) following the manufacturer's recommended protocol. Each of the animals vaccinated with a construct show a demonstrable OVA-specific IgG response over the 28-day test period.

[6] = LNP size and polydispersity by DLS (Malvern Panalytical); type: physicochemical
Summary of the method: (§3)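 LNPs were made from mRNA at 0.35 mg/mL with Genvoy-ILM on a NanoAssemblr Ignite, dialysed into Ca/Mg-free DPBS to <0.5% ethanol and 0.2 µm filtered. Size and polydispersity were measured by DLS after 1:10 dilution in DPBS. Encapsulation efficiency was determined by RiboGreen assay per Precision Nanosystems protocol.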

total IgG = assay: Total sera IgG by radial immunodiffusion after IM or SQ vaccination with OVA mRNA LNPs; type: in vivo, dairy cows; details: for Serum IgG Concentration: one line per animal replicate
Method: as §1, §2
Sera samples were thawed on ice and total IgG was quantified using Triple J Farms' Ig Radial Immunodiffusion (RID) kits (Cat No. 728411) following the manufacturers recommended protocol.

[7] = LNP encapsulation efficiency, RiboGreen assay; type: physicochemical
Summary of the method: as §3

[8] = 0.2 g of adsorbent in 10 mL of 1% 3-NOP/H2O, after 24h, control 8.258 mM
[9] = 0.06 to 0.24 mmol/L, dose-dependent

O=S(=O)([O-])[O-].O=S(=O)([O-])[O-].O=S(=O)([O-])[O-].[Bi+3].[Bi+3] [Bismuth Sulfate]
3-NOP concentration [1, 8]: 8.079 mM

Bovicin HC5
suppression of CH4 in vitro (rumen methanogens [2]): 50%

O=C([O-])CC(O)(CC(=O)[O-])C(=O)[O-].[Bi+3] [Bismuth Citrate]
3-NOP concentration [1, 8]: 8.072 mM

C[N+](C)(C)CC(=O)O [Betaine]
3-NOP concentration [1, 8]: 7.202 mM

Catechin
CH4 production (rumen methanogens [2]): decreased CH4 production both in vitro and in vivo

O=S(=O)([O-])[O-].[Cu+2] [Copper Sulfate]
3-NOP concentration [1, 8]: 7.814 mM

CC#CC(=O)OCC [ethyl 2-butynoate]
sensitivity to the inhibitor, ranking of three species (Methanomicrobium mobile; pure cultures): intermediate
sensitivity to the inhibitor, ranking of three species (Mbb. Ruminantium; pure cultures): most sensitive
sensitivity to the inhibitor, ranking of three species (Methanosarcina mazei; pure cultures): least sensitive

CC[C@H](C)C(=O)O[C@H]1C[C@@H](C)C=C2C=C[C@H](C)[C@H](CC[C@@H]3C[C@@H](O)CC(=O)O3)[C@H]21 [lovastatin]
reduction of total CH4 production by rumen methanogens (rumen methanogens [2]; extracted from fermented rice straw, after 48 h in vitro incubation): ~28%
reduction of CH4 production (rumen methanogens [2]; rumen simulation technique (Rusitec), 150 mg/L): approximately 42%

O=c1[nH]c(=O)c2nccnc2[nH]1 [lumazin, 2,4-pteridinedione]
CH4 production (Methanomicrobium mobile; [9]): significantly decreased
CH4 production (Mbb. Ruminantium; [9]): significantly decreased
CH4 production (Methanosarcina mazei; [9]): significantly decreased

NC(=O)CC[C@H](N)C(=O)O [Glutamine]
3-NOP concentration [1, 8]: 7.588 mM

NCCCC[C@H](N)C(=O)O [Lysine]
Average Integrated Area of 3-NOP in solution ([3]; 3-NOP:Adsorbent 1:1.5, distilled water at 1% 3-NOP loading): 2336.2
Average Integrated Area of 3-NOP in solution ([3]; 3-NOP:Adsorbent 1:2, distilled water at 1% 3-NOP loading): 2308.9
Average Integrated Area of 3-NOP in solution ([3]; 3-NOP:Adsorbent 1:2.5, distilled water at 1% 3-NOP loading): 2266.6
3-NOP concentration [1]: 18.583 mM

3-bromopropanesulfonate [BPS]
concentration up to which the species appeared resistant (Methanomicrobium mobile; pure cultures): 250 µmol/L
concentration up to which the species appeared resistant (Mbb. Ruminantium; pure cultures): 250 µmol/L
concentration up to which the species appeared resistant (Methanosarcina mazei; pure cultures): 250 µmol/L

Nisin
suppression of CH4 in vitro (rumen methanogens [2]): up to 40%

O=S(=O)([O-])CCBr.[Na+] [BES, 2-bromoethanesulfonate]
sensitivity to the inhibitor, ranking of three species (Methanomicrobium mobile; pure cultures): intermediate
sensitivity to the inhibitor, ranking of three species (Mbb. Ruminantium; pure cultures): most sensitive
sensitivity to the inhibitor, ranking of three species (Methanosarcina mazei; pure cultures): least sensitive

C#CC(=O)O [propynoic acid]
lowering of CH4 production (rumen methanogens [2]; 6 mmol/L): 67%
lowering of CH4 production (rumen methanogens [2]; 12 mmol/L): 78%
sensitivity to the inhibitor, ranking of three species (Methanomicrobium mobile; pure cultures): intermediate
sensitivity to the inhibitor, ranking of three species (Mbb. Ruminantium; pure cultures): most sensitive
sensitivity to the inhibitor, ranking of three species (Methanosarcina mazei; pure cultures): least sensitive

CC[N+](=O)[O-] [nitroethane]
decrease of CH4 production (rumen methanogens [4]; orally 24 mg/kg body weight daily for 5 days): up to 45%
decrease of CH4 production (rumen methanogens [4]; orally 72 mg/kg body weight daily for 5 days): ≤ 69%
Addition amount; maximum methane suppression amount [5]: 10 mmol/L; 96.7% (NE),

Cyclodextrin
3-NOP concentration [1, 8]: 7.676 mM

B1: ARK015: mRNA: OVA + STOP, cytosolic OVA; SEQ ID NO: 16675 (nucleic acid)
chain: ATGTTCGTGTTCCTCGTGCTCCTGCCCCTCGTCTCCAGCCAGTGCGTGGGGTCCATAGGGGCTGCTTCTATGGAGTTCTGTTTTGATGTTTTCAAGGAACTGAAGGTTCACCATGCTAACGAGAACATCTTTTACTGTCCAATAGCCATCATGAGTGCGCTTGCTATGGTTTATTTGGGTGCAAAAGATTCTACTCGCACTCAGATTAATAAGGTCGTTAGATTCGACAAGCTTCCAGGGTTTGGAGACAGTATTGAGGCCCAATGTGGAACGTCAGTCAACGTCCATTCTTCTCTGCGGGACATTCTCAACCAAATAACGAAGCCAAACGACGTGTATTCCTTCTCACTCGCGTCACGGCTGTATGCTGAAGAAAGGTATCCTATCTTGCCAGAATATCTCCAGTGCGTCAAGGAGTTGTATCGAGGCGGACTGGAACCGATCAACTTTCAGACTGCAGCCGACCAGGCCCGCGAACTGATCAACAGCTGGGTCGAGTCTCAGACCAATGGGATCATACGCAATGTGTTGCAACCGAGTAGTGTCGACTCTCAGACGGCTATGGTCTTGGTGAACGCTATAGTCTTCAAAGGTCTGTGGGAGAAGACCTTCAAGGATGAAGACACACAAGCGATGCCATTCAGAGTCACCGAACAAGAAAGCAAACCCGTCCAAATGATGTACCAAATTGGGCTTTTTCGGGTGGCCTCTATGGCCTCTGAGAAAATGAAAATATTGGAACTGCCCTTCGCCAGCGGCACAATGAGTATGTTGGTCCTTCTTCCAGATGAAGTCTCAGGTCTCGAACAGCTTGAGTCTATCATTAACTTTGAGAAACTCACTGAATGGACTTCTTCCAATGTGATGGAAGAACGAAAAATCAAAGTCTACCTGCCCCGAATGAAGATGGAAGAGAAATATAATTTGACATCAGTTCTGATGGCCATGGGAATCACAGACGTGTTTTCATCCTCTGCGAATCTGTCTGGCATATCTTCCGCAGAATCTCTCAAGATCAGTCAAGCCGTCCACGCGGCCCATGCTGAGATAAATGAGGCGGGCAGAGAGGTGGTGGGGTCCGCCGAAGCTGGAGTCGACGCAGCTTCTGTCAGTGAAGAATTTAGGGCCGATCATCCTTTCCTGTTCTGCATAAAGCACATAGCTACGAACGCTGTGCTTTTCTTTGGCAGATGCGTTTCTCCATGA
modifications: listed as DNA
OVA-specific IgG, Absorbance (OD450) (ovalbumin (OVA); IM injection, Day 0, dairy cows): 0.842 OD450 and 0.938 OD450 and 0.308 OD450
OVA-specific IgG, Absorbance (OD450) (ovalbumin (OVA); IM injection, Day 14, dairy cows): 1.653 OD450 and 1.048 OD450 and 0.513 OD450
OVA-specific IgG, Absorbance (OD450) (ovalbumin (OVA); IM injection, Day 21, dairy cows): 1.23 OD450 and 1.261 OD450 and 0.443 OD450
OVA-specific IgG, Absorbance (OD450) (ovalbumin (OVA); IM injection, Day 28, dairy cows): 1.097 OD450 and 0.999 OD450 and 0.465 OD450
OVA-specific IgG, Absorbance (OD450) (ovalbumin (OVA); SQ injection, Day 0, dairy cows): 1.394 OD450 and 1.327 OD450 and 3.178 OD450
OVA-specific IgG, Absorbance (OD450) (ovalbumin (OVA); SQ injection, Day 14, dairy cows): 1.287 OD450 and 1.175 OD450 and 2.478 OD450
OVA-specific IgG, Absorbance (OD450) (ovalbumin (OVA); SQ injection, Day 21, dairy cows): 1.504 OD450 and 1.277 OD450 and 1.985 OD450
OVA-specific IgG, Absorbance (OD450) (ovalbumin (OVA); SQ injection, Day 28, dairy cows): 1.368 OD450 and 1.066 OD450 and 1.691 OD450
OVA-specific IgG response, intramuscular as compared to subcutaneous injection (ovalbumin (OVA); dairy cows, FIG. 10): ~4 fold
PDI ([6]; LNP polydispersity, mRNA LNPs of Table 18): 0.130
Z-avg. ([6]; LNP size, mRNA LNPs of Table 18): 68.06 nm·days
PDI ([6]; mRNA LNPs, Example 6): 0.1705
Z-avg. ([6]; mRNA LNPs, Example 6): 96.66 nm·days
Serum IgG Concentration (total IgG; IM injection, Day 0, dairy cows, dose 348-468 ug): 3,658 mg/dL and 4,086 mg/dL and 3,167 mg/dL
Serum IgG Concentration (total IgG; IM injection, Day 14, dairy cows, dose 348-468 ug): 3,692 mg/dL and 5,735 mg/dL and 3,947 mg/dL
Serum IgG Concentration (total IgG; IM injection, Day 21, dairy cows, dose 348-468 ug): 4,070 mg/dL and 2,488 mg/dL and 3,797 mg/dL
Serum IgG Concentration (total IgG; IM injection, Day 28, dairy cows, dose 348-468 ug): 3,272 mg/dL and 4,153 mg/dL and 2,723 mg/dL
Serum IgG Concentration (total IgG; SQ injection, Day 0, dairy cows, dose 353-468 ug): 4,875 mg/dL and 3,680 mg/dL and 2,964 mg/dL
Serum IgG Concentration (total IgG; SQ injection, Day 14, dairy cows, dose 353-468 ug): 5,972 mg/dL and 3,257 mg/dL and 3,894 mg/dL
Serum IgG Concentration (total IgG; SQ injection, Day 21, dairy cows, dose 353-468 ug): 5,722 mg/dL and 3,149 mg/dL and 3,981 mg/dL
Serum IgG Concentration (total IgG; SQ injection, Day 28, dairy cows, dose 353-468 ug): 4,015 mg/dL and 3,009 mg/dL and 2,221 mg/dL
total sera IgG immune response, treated groups normalized against the empty groups (total IgG; dairy cows, 3 animals per construct, 28-day test period, FIG. 9): detectable immune response in at least one of the treated animals
Encapsulation efficiency ([7]; mRNA LNPs of Table 18): 62%
Encapsulation efficiency ([7]; mRNA LNPs, Example 6): 84%
